Patent US20180371044A1, “PEPTIDOMIMETIC MACROCYCLES” (Aileron Therapeutics, Inc., priority 2015, published 2018)
Where a SMILES comes first, the peptide text is derived from it. Bridges are numbered along the chain shown (N, C = ends). [ ]: non-standard residue; d: D form. NiPrTyr = CC(C)N[C@@H](Cc1ccc(O)cc1)C(=O)O; NMeY = CN[C@@H](Cc1ccc(O)cc1)C(=O)O; R8 = C=CCCCCCC[C@@](C)(N)C(=O)O; Cit = NC(=O)NCCC[C@H](N)C(=O)O; S5 = C=CCCC[C@](C)(N)C(=O)O; Nle = CCCC[C@H](N)C(=O)O; Aib = CC(C)(N)C(=O)O

Target: T1, human GHRH receptor (hGHRHR) (Homo sapiens, UniProt Q02643)
T1 construct: expressed in transfected cells; host or cells: Human 293 cells
T1 sequence (Q02643 23-423): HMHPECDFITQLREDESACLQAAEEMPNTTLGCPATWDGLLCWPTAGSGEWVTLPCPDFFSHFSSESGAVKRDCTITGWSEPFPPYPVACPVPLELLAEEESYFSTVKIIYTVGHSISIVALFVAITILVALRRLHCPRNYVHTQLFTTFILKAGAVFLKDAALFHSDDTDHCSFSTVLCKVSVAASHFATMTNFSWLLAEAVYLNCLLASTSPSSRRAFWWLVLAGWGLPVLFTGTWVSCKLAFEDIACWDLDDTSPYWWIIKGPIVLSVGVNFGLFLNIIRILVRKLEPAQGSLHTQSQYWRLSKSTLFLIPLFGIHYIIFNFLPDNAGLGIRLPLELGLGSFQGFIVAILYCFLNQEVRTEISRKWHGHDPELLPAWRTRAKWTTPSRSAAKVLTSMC
Assay: GHRHR agonism measured by cAMP (HTRF) in human 293 cells expressing hGHRHR;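 note: receptor expressed transiently or stably, cells stimulated in serum-free medium, EC50 from a non-linear dose-response fit, maximal response defined by reference GHRH stimulation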
Format: cell-based
Conditions: 30 min at RT

Compound | EC50 [nM]
CCCC[C@H](NC(=O)[C@@H](NC(=O)[C@H](CC(=O)O)NC(=O)[C@H](CCC(N)=O)NC(=O)[C@H](CC(C)C)NC(=O)[C@H](C)NC(=O)[C@H](CCCCN)NC(=O)[C@H](CCCNC(N)=O)NC(=O)[C@H](C)NC(=O)[C@H](CO)NC(=O)[C@H](CC(C)C)NC(=O)[C@H](CCC(N)=O)NC(=O)[C@H](C)NC(=O)[C@H](CC(C)C)NC(=O)[C@@H](NC(=O)[C@H](CCCCN)NC(=O)[C@H](CCCNC(=N)N)NC(=O)[C@H](Cc1ccc(O)cc1)NC(=O)[C@H](CO)NC(=O)[C@H](C)NC(=O)[C@@H](NC(=O)[C@H](Cc1ccccc1)NC(=O)[C@@H](NC(=O)[C@H](C)NC(=O)[C@H](CC(=O)O)NC(=O)[C@H](C)NC(=O)[C@H](Cc1ccc(O)cc1)NC)[C@@H](C)CC)[C@@H](C)O)C(C)C)[C@@H](C)CC)C(=O)N[C@@H](CO)C(=O)N[C@@H](CCCNC(=N)N)C(N)=O [SP-48] (H-[NMeY]ADAIFTASYRKVLAQLSA[Cit]KALQDI[Nle]SR-NH2) | 1 to 10
CCCC[C@H](NC(=O)[C@@H](NC(=O)[C@H](CC(=O)O)NC(=O)[C@H](CCC(N)=O)NC(=O)[C@H](CC(C)C)NC(=O)[C@H](C)NC(=O)[C@H](CCCCN)NC(=O)[C@H](CCCNC(=N)N)NC(=O)[C@H](C)NC(=O)[C@H](CO)NC(=O)[C@H](CC(C)C)NC(=O)[C@]1(C)CCCC=CCCC[C@](C)(NC(=O)[C@H](CCCNC(=N)N)NC(=O)[C@H](Cc2ccc(O)cc2)NC(=O)[C@H](CO)NC(=O)[C@H](C)NC(=O)[C@@H](NC(=O)[C@H](Cc2ccccc2)NC(=O)[C@@H](NC(=O)[C@H](C)NC(=O)[C@H](CC(=O)O)NC(=O)[C@H](C)NC(=O)[C@H](Cc2ccc(O)cc2)NC)[C@@H](C)CC)[C@@H](C)O)C(=O)N[C@@H](C(C)C)C(=O)N[C@@H](CC(C)C)C(=O)N[C@@H](C)C(=O)N1)[C@@H](C)CC)C(=O)N[C@@H](CO)C(=O)N[C@@H](CCCNC(=N)N)C(N)=O [SP-11] (H-[NMeY]ADAIFTASYR[S5]VLA[S5]LSARKALQDI[Nle]SR-NH2; staple 12-16) | 10 to 25
CCCC[C@H](NC(=O)[C@@H](NC(=O)[C@H](CC(=O)O)NC(=O)[C@H](CCC(N)=O)NC(=O)[C@H](CC(C)C)NC(=O)[C@H](C)NC(=O)[C@H](CCCCN)NC(=O)[C@H](CCCNC(=N)N)NC(=O)[C@H](C)NC(=O)[C@H](CO)NC(=O)[C@H](CC(C)C)NC(=O)[C@H](CCC(N)=O)NC(=O)[C@H](C)NC(=O)[C@H](CC(C)C)NC(=O)[C@@H](NC(=O)[C@H](CCCCN)NC(=O)[C@H](CCCNC(=N)N)NC(=O)[C@H](Cc1ccc(O)cc1)NC(=O)[C@H](CO)NC(=O)[C@H](C)NC(=O)[C@@H](NC(=O)[C@H](Cc1ccccc1)NC(=O)[C@@H](NC(=O)[C@H](C)NC(=O)[C@H](CC(=O)O)NC(=O)[C@H](C)NC(=O)[C@H](Cc1ccc(O)cc1)NC(C)C)[C@@H](C)CC)[C@@H](C)O)C(C)C)[C@@H](C)CC)C(=O)N[C@@H](CO)C(=O)N[C@@H](CCCNC(=N)N)C(N)=O [SP-37] (H-[NiPrTyr]ADAIFTASYRKVLAQLSARKALQDI[Nle]SR-NH2) | 1 to 10
CCCC[C@H](NC(=O)[C@@H](NC(=O)[C@H](C)NC(=O)[C@H](CCC(N)=O)NC(=O)[C@H](CC(C)C)NC(=O)[C@H](C)NC(=O)[C@H](CCCCN)NC(=O)[C@H](CCCNC(=N)N)NC(=O)[C@]1(C)CCCC=CCCCCCC[C@@](C)(NC(=O)[C@H](CCCNC(=N)N)NC(=O)[C@H](Cc2ccc(O)cc2)NC(=O)[C@H](CO)NC(=O)[C@H](C)NC(=O)[C@@H](NC(=O)[C@H](Cc2ccccc2)NC(=O)[C@@H](NC(=O)[C@H](C)NC(=O)[C@H](CC(=O)O)NC(=O)[C@H](C)NC(=O)[C@H](Cc2ccc(O)cc2)NC)[C@@H](C)CC)[C@@H](C)O)C(=O)N[C@@H](C(C)C)C(=O)N[C@@H](CC(C)C)C(=O)N[C@@H](C)C(=O)N[C@@H](CCC(N)=O)C(=O)N[C@@H](CC(C)C)C(=O)N[C@@H](CO)C(=O)N1)[C@@H](C)CC)C(=O)N[C@@H](CO)C(=O)N[C@@H](CCCNC(=N)N)C(N)=O [SP-61] (H-[NMeY]ADAIFTASYR[R8]VLAQLS[S5]RKALQAI[Nle]SR-NH2; staple 12-19) | 10 to 25
CCCC[C@H](NC(=O)[C@@H](NC(=O)[C@H](CC(=O)O)NC(=O)[C@H](CCC(N)=O)NC(=O)[C@H](CC(C)C)NC(=O)[C@H](C)NC(=O)[C@H](CCCCN)NC(=O)[C@H](CCCNC(=N)N)NC(=O)[C@H](C)NC(=O)[C@H](CO)NC(=O)[C@H](CC(C)C)NC(=O)[C@H](CCC(N)=O)NC(=O)[C@H](C)NC(=O)[C@H](CC(C)C)NC(=O)[C@@H](NC(=O)[C@H](CCCCN)NC(=O)[C@H](CCCNC(=N)N)NC(=O)[C@H](Cc1ccc(O)cc1)NC(=O)[C@H](CO)NC(=O)[C@H](C)NC(=O)[C@@H](NC(=O)[C@H](Cc1ccccc1)NC(=O)[C@@H](NC(=O)[C@H](C)NC(=O)[C@H](CC(=O)O)NC(=O)[C@H](C)NC(=O)[C@@H](N)Cc1ccc(O)cc1)[C@@H](C)CC)[C@@H](C)O)C(C)C)[C@@H](C)CC)C(=O)N[C@@H](CO)C(=O)N[C@@H](CCCNC(=N)N)C(N)=O [SP-36] (H-YADAIFTASYRKVLAQLSARKALQDI[Nle]SR-NH2) | 1 to 10
CCCC[C@H](NC(=O)[C@@H](NC(=O)[C@H](CC(=O)O)NC(=O)[C@H](CCC(N)=O)NC(=O)[C@]1(C)CCCC=CCCCCCC[C@@](C)(NC(=O)[C@H](C)NC(=O)[C@H](CC(C)C)NC(=O)[C@@H](NC(=O)[C@H](CCCCN)NC(=O)[C@H](CCCNC(=N)N)NC(=O)[C@H](Cc2ccc(O)cc2)NC(=O)[C@H](CO)NC(=O)[C@H](C)NC(=O)[C@@H](NC(=O)[C@H](Cc2ccccc2)NC(=O)[C@@H](NC(=O)[C@H](C)NC(=O)[C@H](CC(=O)O)NC(=O)[C@H](C)NC(=O)[C@H](Cc2ccc(O)cc2)NC)[C@@H](C)CC)[C@@H](C)O)C(C)C)C(=O)N[C@@H](CC(C)C)C(=O)N[C@@H](CO)C(=O)N[C@@H](C)C(=O)N[C@@H](CCCNC(=N)N)C(=O)N[C@@H](CCCCN)C(=O)N[C@@H](C)C(=O)N1)[C@@H](C)CC)C(=O)N[C@@H](CO)C(=O)N[C@@H](CCCNC(=N)N)C(N)=O [SP-28] (H-[NMeY]ADAIFTASYRKVLA[R8]LSARKA[S5]QDI[Nle]SR-NH2; staple 16-23) | 1 to 10
CCCC[C@H](NC(=O)[C@@H](NC(=O)[C@H](CC(=O)O)NC(=O)[C@H](CCC(N)=O)NC(=O)[C@H](CC(C)C)NC(=O)[C@H](C)NC(=O)[C@H](CCCCN)NC(=O)[C@H](CCCNC(=N)N)NC(=O)[C@H](C)NC(=O)[C@H](CO)NC(=O)[C@H](CC(C)C)NC(=O)[C@H](CCC(N)=O)NC(=O)[C@H](C)NC(=O)[C@H](CC(C)C)NC(=O)[C@@H](NC(=O)[C@H](CCCCN)NC(=O)[C@H](CCCNC(=N)N)NC(=O)[C@H](Cc1ccc(O)cc1)NC(=O)[C@H](CO)NC(=O)C(C)(C)NC(=O)[C@@H](NC(=O)[C@H](Cc1ccccc1)NC(=O)[C@@H](NC(=O)[C@H](C)NC(=O)[C@H](CC(=O)O)NC(=O)[C@H](C)NC(=O)[C@H](Cc1ccc(O)cc1)NC)[C@@H](C)CC)[C@@H](C)O)C(C)C)[C@@H](C)CC)C(=O)N[C@@H](CO)C(=O)N[C@@H](CCCNC(=N)N)C(N)=O [SP-41] (H-[NMeY]ADAIFT[Aib]SYRKVLAQLSARKALQDI[Nle]SR-NH2) | ≤ 1
